Reference: patent US6344458B1, “Piperazine ethylamide derivatives” (American Home Products Corporation, priority 1998, dated 2002)
Where a name gives a salt, the structure may show the parent alone.

Assays:
[1] = target: T1, human 5HT1A receptor (Homo sapiens, UniProt P08908); test: 5-HT1A Receptor Binding Assay ([3H] 8-OH-DPAT displacement); details: displacement of [3H] 8-OH-DPAT, CHO cells stably transfected with human 5HT1A receptor
T1 construct: expressed in transfected cells; host or cells: CHO cells (stably transfected)
T1 sequence (P08908 1-422): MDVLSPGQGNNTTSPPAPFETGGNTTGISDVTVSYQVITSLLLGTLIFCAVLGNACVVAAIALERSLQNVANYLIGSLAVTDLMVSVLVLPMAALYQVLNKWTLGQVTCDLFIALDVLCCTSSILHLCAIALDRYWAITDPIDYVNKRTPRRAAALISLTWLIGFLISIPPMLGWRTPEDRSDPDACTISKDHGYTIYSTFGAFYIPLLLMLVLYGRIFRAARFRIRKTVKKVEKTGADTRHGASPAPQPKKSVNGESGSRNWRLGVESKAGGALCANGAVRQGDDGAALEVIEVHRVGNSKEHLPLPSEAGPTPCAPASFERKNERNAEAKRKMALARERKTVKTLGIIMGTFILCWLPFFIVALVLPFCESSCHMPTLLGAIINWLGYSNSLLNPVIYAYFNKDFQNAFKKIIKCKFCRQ
Method: 5-HT1A Receptor Binding Assay
High affinity for the serotonin 5-HT1A receptor was established by testing a compound's ability to displace [^3H] 8-OH-DPAT binding in CHO cells stably transfected with the human 5HT1A receptor. Stably transfected CHO cells are grown in DMEM containing 10% heat inactivated FBS and non-essential amino acids. Cells are scraped off the plate, transferred to centrifuge tubes, and washed twice by centrifugation (2000 rpm for 10 min., 4° C.) in buffer (50 mM Tris pH 7.5). The resulting pellets are aliquoted and placed at −80° C. On the day of assay, the cells are thawed on ice and resuspended in buffer. The binding assay is performed in a 96 well microtiter plate in a total volume of 250 μL. Non-specific binding is determined in the presence of […] 5-HT, final ligand concentration is 1.5 nM. Following a 30 minute incubation at room temperature, the reaction is terminated by the addition of ice cold buffer and rapid filtration through a GF/B filter presoaked for 30 minutes in 0.5% PEI. Compounds are initially tested in a single point assay to determine percent inhibition at […], and Ki values are determined for the active compounds.

[2] = target: T1, human 5HT1A receptor; test: 5-HT1A Receptor Intrinsic Activity Assay (reversal of forskolin-stimulated cAMP); assay type: cell-based; details: for Emax: agonist activity, cAMP, forskolin-stimulated CHO cells with human 5-HT1A receptor
Method: 5-HT1A Receptor Intrinsic Activity Assay
The intrinsic activity of compounds of the present invention was established by testing the claimed compounds ability to reverse the stimulation of cyclic adenosinemonophosphate (cAMP) in CHO cells stably transfected with the human 5-HT1A receptor.
Stably transfected CHO cells were grown in DMEM containing 10% heat inactivated FBS and non-essential amino acids. The cells are plated at a density of […] per well in a 24 well plate and incubated for 2 days in a CO2 incubator. On the second day, the media is replaced with 0.5 mL treatment buffer (DMEM+25 mM HEPES, 5 mM theophylline, 10 μM pargyline) and incubated for 10 minutes at 37° C. Wells are treated with forskolin (1 μM final concentration) followed immediately by the test compound (0.1 and 1 μM for initial screen) and incubated for an additional 10 minutes at 37° C. The reaction is terminated by removal of the media and addition of 0.5 mL ice cold assay buffer (supplied in the RIA kit). Plates are stored at −20° C. prior to assessment of cAMP formation by RIA. EC50 values are determined for the active test compounds. Compounds shown to have no agonist activities (Emax=0%) are further analyzed for their ability to reverse agonist induced activity. In separate experiments, 6 concentrations of antagonist are preincubated for 20 minutes prior to the addition of agonist and forskolin. Cells are harvested as described above. The cAMP kit is supplied by Amersham and the RIA is performed as per kit instructions, and calculations of IC50 performed by GraphPad Prism.

`COc1ccccc1N1CCN(CCN(Cc2ccccc2)C(=O)C2CCCCC2)CC1` (as salt: fumarate) [Compound 2, Cyclohexanecarboxylic acid benzyl-{2-[4-(2-methoxy-phenyl)-piperazin-1-yl]-ethyl}-amide] showed a melting point of 144 to 146 °C.
`COc1ccccc1N1CCN(CCN(Cc2cccc3ccccc23)C(=O)C2CCCCC2)CC1` (as salt: fumarate) [Compound 4, Cyclohexanecarboxylic acid{2-[4-(2-methoxy-phenyl)-piperazin-1-yl]-ethyl}-naphthalen-1-ylmethl-amide] gave a melting point of 204 to 206 °C.
For `COc1ccccc1N1CCN(CCN(CCCc2ccccc2)C(=O)C2CCCCC2)CC1` (as salt: fumarate) [Compound 8, Cyclohexanecarboxylic acid-{2-[4-(2-methoxy-phenyl)-piperazin-1-yl]-ethyl}-(3-phenyl-propyl)-amide], the melting point was 103 to 105 °C.
`COc1ccccc1N1CCN(CCNC(=O)c2ccccc2)CC1` (as salt: fumaric acid salt) [Compound 1, N-{2-[4-(2-Methoxy-phenyl)-piperazin-1-yl]-ethyl}-benzamide] showed a melting point of 136 to 138 °C.
Work on `COc1ccccc1N1CCN(CCNC(=O)CCc2ccccc2)CC1` (as salt: fumaric acid salt) [Compound 7, N-{2-[4-(2-Methoxy-phenyl)-piperazin-1-yl]-ethyl}-3-phenyl-propionamide] yielded a melting point of 107 to 108 °C.
Work on `COc1ccccc1N1CCN(CCN(Cc2ccccc2)C(=O)C2CCCCC2)CC1` [Compound 2, Cyclohexanecarboxylic acid benzyl-{2-[4-(2-methoxy-phenyl)-piperazin-1-yl]-ethyl}-amide] yielded a Ki [1] of 1.8 nM, an Emax [2] of 36% and an EC50 ([2]; agonist mode, reversal of forskolin-stimulated cAMP in CHO cells) of 4.2 nM.
`COc1ccccc1N1CCN(CCN(Cc2cccc3ccccc23)C(=O)C2CCCCC2)CC1` [Compound 4, Cyclohexanecarboxylic acid{2-[4-(2-methoxy-phenyl)-piperazin-1-yl]-ethyl}-naphthalen-1-ylmethl-amide] gave a Ki [1] of 26 nM and an Emax [2] of 88%.
`COc1ccccc1N1CCN(CCN(Cc2ccc3ccccc3c2)C(=O)C2CCCCC2)CC1` [Compound 6, Cyclohexanecarboxylic acid-{2-[4-(2-methoxy-phenyl)-piperazin-1-yl]-ethyl}-naphthalen-2-ylmethyl-amide] gave a Ki [1] of 1.2 nM, an Emax [2] of 0% and an IC50 ([2]; antagonist mode, reversal of agonist induced activity, preincubated 20 minutes before agonist and forskolin) of 24 nM.
In the case of `COc1ccccc1N1CCN(CCN(CCCc2ccccc2)C(=O)C2CCCCC2)CC1` [Compound 8, Cyclohexanecarboxylic acid-{2-[4-(2-methoxy-phenyl)-piperazin-1-yl]-ethyl}-(3-phenyl-propyl)-amide], the Ki [1] is reported as 20 nM and the Emax [2] is reported as 77%.
